Laboratory results as given in PubChem BioAssay (NCI).
“And” between values parts separate entries of the source, which are not always exact repeats. Equal entries are not always repeated.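 These data come from cells grown in 96-well plates and exposed to compound for 48 hours at five concentrations. Here, GI50 denotes the concentration required for 50% inhibition of growth. The concentration for full growth arrest is given as TGI.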

How the values were obtained:
Experiment in all cases: inhibition of tumour cell growth, NCI panel, 48 h
[1] = system: KM12 colon
[2] = system: HOP-62 NSCLC
[3] = system: UO-31 renal
[4] = system: PC-3 prostate
[5] = system: OVCAR-4 ovarian
[6] = system: IGROV1 ovarian
[7] = system: SF-539 CNS
[8] = system: MDA-N
[9] = system: CAKI-1 renal
[10] = system: DLD-1 colon
[11] = system: KM20L2 colon
[12] = system: DMS 273 small cell lung

| SMILES | TGI [1] | TGI [2] | TGI [3] | TGI [4] | TGI [5] | TGI [6] | TGI [7] | TGI [8] | TGI [9] | TGI [10] | TGI [11] | TGI [12] | GI50 [7] |
| --- | --- | --- | --- | --- | --- | --- | --- | --- | --- | --- | --- | --- | --- |
| CCCN1C(=O)CCC2=C1CCc1c2ccc(Cl)c1Cl | > 100 µM | > 100 µM | > 100 µM | > 100 µM | > 100 µM | > 100 µM | 95.4 µM | > 100 µM | > 100 µM |  |  |  |  |
| O=C(CN1CCN(C(=O)OCc2ccccc2)CCN(CC(=O)N2CCCCC2)CCN(C(=O)OCc2ccccc2)CC1)N1CCCCC1 | 46.3 µM | 42.2 µM | 30.6 µM | 37.3 µM | 25.4 µM | 28.9 µM | 27.8 µM | 29.7 µM | 28.9 µM |  |  |  |  |
| O=C(NO)c1coc2ccccc2c1=O | > 100 µM |  | > 100 µM |  | > 100 µM | > 100 µM | > 100 µM |  | 68.5 µM | > 100 µM | > 100 µM | > 100 µM |  |
| CC1(c2ccc(Cl)cc2)CC(c2ccc(Cl)cc2)=C(C#N)C(=C(C#N)C#N)N1 (stereo not drawn) | 40.3 µM | 25.1 µM | 30.7 µM | 31.9 µM | 35.7 µM | 28.8 µM | 40.7 µM | 38.5 µM | 32.5 µM |  |  |  |  |
| COc1ccc2c3c1OC1C(=O)C=CC4(O)C(C2)NCC[C@@]314 (stereo partly drawn) | 8.59 µM | 9.87 µM | 8.53 µM | 12.2 µM | 12.9 µM | 15.1 µM | 4.02 µM | 4.91 µM | 8.49 µM |  |  |  |  |
| OCCN(CCO)c1ccc2c(C(F)(F)F)cc(C(F)(F)F)nc2n1 | > 100 µM | > 100 µM | > 100 µM | > 100 µM | > 100 µM | > 100 µM | > 100 µM | > 100 µM | > 100 µM |  |  |  |  |
| COC(=O)NCCc1[nH]nc2c1C(=O)C=C(Nc1ccccc1)C2=O | 62.2 µM | > 100 µM | > 100 µM | > 100 µM | 72 µM | 65.2 µM | 52.4 µM | 33.2 µM | > 100 µM |  |  |  |  |
| CC(C)C(C/C=C1/CC(CO)(COC(=O)CC(C(C)C)C(C)C)OC1=O)C(C)C (stereo not drawn) | 21.6 µM | 18.3 µM | 19.9 µM | 20.2 µM | 31.8 µM | 31.1 µM | 23.8 µM | 29.6 µM | 16.5 µM |  |  |  |  |
| CN1CCC2(CC1)C(=O)N(N1CCCCCC1)C(=O)N2c1ccccc1 | > 100 µM | > 100 µM | > 100 µM | > 100 µM | > 100 µM | > 100 µM | > 100 µM | > 100 µM | > 100 µM |  |  |  |  |
| c1ccc(N=C2SC(=NNc3ccccc3)SC2=Nc2ccccc2)cc1 | > 100 µM | > 100 µM | > 100 µM | > 100 µM | > 100 µM | > 100 µM | > 100 µM | > 100 µM | > 100 µM |  |  |  |  |
| COc1ccc(C2SCC(=O)N2c2ccc(-c3ccc(-n4c(-c5ccccc5)nc5ccccc5c4=O)cc3)cc2)cc1 (stereo not drawn) | 79.8 µM | > 100 µM | > 100 µM | > 100 µM | > 100 µM | > 100 µM | > 100 µM | > 100 µM | > 100 µM |  |  |  |  |
| COc1cc([C@@H]2c3cc4c(cc3[C@@H](NCCNCCO)[C@H]3COC(=O)[C@H]23)OCO4)cc(OC)c1O | > 40.2 µM and 17.5 µM | 5.18 µM and 6.52 µM | 50 µM and 39.9 µM | > 100 µM | 47.4 µM and > 84.8 µM | 20.2 µM and 12 µM | 3.13 µM and 1.04 µM | 21.4 µM and 28.8 µM | 30.1 µM and > 59.5 µM |  |  |  | 0.702 µM and 0.171 µM |
| O=C(Cn1nc(Br)c(Br)c1Br)c1ccccc1 | > 100 µM | > 100 µM | 57 µM | > 100 µM | > 100 µM | > 100 µM | 45.1 µM | > 100 µM | 96.7 µM |  |  |  |  |
